# From ChEMBL document CHEMBL5046248, “New Pqs Quorum Sensing System Inhibitor as an Antibacterial Synergist against Multidrug-Resistant Pseudomonas aeruginosa” (J Med Chem, 2022)
# Activity calls are given as the source filed them. No cut-off for these calls is given here.
# Tests used:
# Pseudomonas aeruginosa [1] = assay: Antibacterial activity against Pseudomonas aeruginosa PAO1 assessed as inhibition of biofilm formation for 24 hrs by crystal violet staining based assay; assay type: functional, organism-based; conditions: PAO1, 24 h
# Pseudomonas aeruginosa [2] = assay: Antibiofilm activity against Pseudomonas aeruginosa PAO1 assessed as effect on pyochelin production fluorescence at 1.25 to 20 uM by fluorescence assay; assay type: functional, organism-based; conditions: dose 1.25-20 µM
SMILES,IC50 (Pseudomonas aeruginosa [1]) [µM],Activity (Pseudomonas aeruginosa [2])
CCn1c(C)cc(=O)c(O)c1CNS(=O)(=O)c1ccc(OC)cc1,> 100,
CCCCn1c(C)cc(=O)c(O)c1CNC1CCCC1,> 100,
COc1ccc(C(=O)NCc2cc(=O)c(O)cn2C)cc1,> 100,
O=C(NCc1cc(=O)c(O)cn1O)c1ccc(C(F)(F)F)cc1,> 100,
CCCn1c(C)cc(=O)c(O)c1CNC(=O)c1cccc(OC)c1,56.5,
CCCCCCC(=O)NCc1c(O)c(=O)cc(C)n1CCCC,> 100,
CCCCCC(=O)NCc1cc(=O)c(O)cn1C,> 100,
CC[C@H]1OC(=O)[C@H](C)[C@@H](O[C@H]2C[C@@](C)(OC)[C@@H](O)[C@H](C)O2)[C@H](C)[C@@H](O[C@@H]2O[C@H](C)C[C@H](N(C)C)[C@H]2O)[C@](C)(O)C[C@@H](C)CN(C)[C@H](C)[C@@H](O)[C@]1(C)O [AZITHROMYCIN],7.1,
Cc1c(O)c(=O)ccn1C,,inactive
CCCCn1c(C)cc(=O)c(O)c1CNS(=O)(=O)c1ccc(OC)cc1,40.4,
CCCCCCC(=O)NCc1c(O)c(=O)cc(C)n1CCC,> 100,
CCCCCC(=O)NCc1c(O)c(=O)cc(C)n1CCC,> 100,
CCCCCC(=O)NCc1c(O)c(=O)cc(C)n1CC,> 100,
CCCCCCCC(=O)NCc1cc(=O)c(O)cn1O,> 100,
CCCCCCC(=O)NCc1cc(=O)c(O)cn1O,> 100,
CCCCCn1c(C)cc(=O)c(O)c1CNC(=O)c1ccc(OC)cc1,52.5,
COCCn1c(C)cc(=O)c(O)c1CNC(=O)c1ccc(OC)cc1,> 100,
CCCCn1c(C)cc(=O)c(O)c1CNC(=O)Cc1ccc(F)cc1,> 100,
CCn1c(C)cc(=O)c(O)c1CNc1ccc(OC)cc1,> 100,
COCCn1c(C)cc(=O)c(O)c1CNC(=O)c1ccc(C(F)(F)F)cc1,> 100,
CCCn1c(C)cc(=O)c(O)c1CNc1ccc(OC)cc1,55.5,
CCCn1c(C)cc(=O)c(O)c1CNC1CCCC1,> 100,
